In the supplement of paper PMC10949913:

Tests used:
Conditions in all cases: 48 h
NCI-H295R [1] = experiment: AC50 viability; higher = less potent
In short: (§1)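 Cells from three adrenocortical carcinoma lines were seeded at 500–1,000 cells/well in 5 µL medium in 1,536-well plates. Each library compound was added as 23 nL at 11 concentrations, and after 48 h CellTiter-Glo was added for 15 minutes at room temperature before reading luminescence. Plate-wise normalisation to vehicle and empty-well controls preceded curve fitting. AC50 and area under the curve were calculated only for inhibitory or non-responding curve classes.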

CU-ACC1 [2] = experiment: AC50 viability; higher = less potent
In short: as §1

NCI-H295R [3] = experiment: area under concentration-response curve (viability) (AUC (a.u.)); higher = less active
In short: as §1

CU-ACC2 = experiment: as above
In short: as §1

CU-ACC1 [4] = experiment: as above
In short: as §1

With C[C@@H]1CN(Cc2ccc(F)cc2)CCN1C(=O)COc1ccc(Cl)cc1NC(N)=O the AC50 viability (NCI-H295R [1]) was 0.166 µM, the AC50 viability (CU-ACC1 [2]) was 1.86 µM and the “area under concentration-response curve” value (NCI-H295R [3]) was 465. The “area under concentration-response curve” value (CU-ACC2) was 522 and the “area under concentration-response curve” value (CU-ACC1 [4]) was 412.
In the case of Cc1ccc(C(C)(O)c2nc3ccccc3s2)c(C)c1 (stereo not drawn), the AC50 viability (NCI-H295R [1]) is reported as 16.6 µM, the AC50 viability (CU-ACC1 [2]) is reported as 8.33 µM and the “area under concentration-response curve” value (NCI-H295R [3]) is reported as 464. For the same compound, the “area under concentration-response curve” value (CU-ACC2) was 511 and the “area under concentration-response curve” value (CU-ACC1 [4]) was 421.
For Cc1nnn(C)c1-c1cnc2c3ccc(C(C)(C)O)cc3n([C@H](c3ccccc3)C3CCOCC3)c2c1, the AC50 viability (NCI-H295R [1]) was 0.0166 µM, the AC50 viability (CU-ACC1 [2]) was 0.468 µM and the “area under concentration-response curve” value (NCI-H295R [3]) was 425. For the same compound, the “area under concentration-response curve” value (CU-ACC2) was 482 and the “area under concentration-response curve” value (CU-ACC1 [4]) was 416.
In the case of COc1cc2ncnc(Nc3cccc(Cl)c3)c2cc1OC, the AC50 viability (NCI-H295R [1]) is reported as 20.9 µM, the AC50 viability (CU-ACC1 [2]) is reported as 13.2 µM and the “area under concentration-response curve” value (NCI-H295R [3]) is reported as 562. The “area under concentration-response curve” value (CU-ACC2) was 610 and the “area under concentration-response curve” value (CU-ACC1 [4]) was 558.
In the case of Cc1cc(C)c([S+](=O)([O-])N(CCc2cccc(Br)c2)Cc2ccc(-c3cccc([S+](C)(=O)[O-])c3)cc2)c(C)c1, the AC50 viability (NCI-H295R [1]) is reported as 7.42 µM, the AC50 viability (CU-ACC1 [2]) is reported as 0.833 µM and the “area under concentration-response curve” value (NCI-H295R [3]) is reported as 442. For the same compound, the “area under concentration-response curve” value (CU-ACC2) was 417 and the “area under concentration-response curve” value (CU-ACC1 [4]) was 412.
Cc1nc(N)ncc1-c1nc(N2CCOCC2)c2sc(C(C)(C)O)cc2n1 was tested, and the AC50 viability (NCI-H295R [1]) was 4.68 µM, the AC50 viability (CU-ACC1 [2]) was 8.33 µM and the “area under concentration-response curve” value (NCI-H295R [3]) was 475. The “area under concentration-response curve” value (CU-ACC2) was 488 and the “area under concentration-response curve” value (CU-ACC1 [4]) was 333.
With COc1ncc(Nc2ncc([C@H](C)N3CCN([S+](C)(=O)[O-])CC3)cc2-c2nc(C)nc(N)n2)cc1F the AC50 viability (NCI-H295R [1]) was 0.934 µM, the AC50 viability (CU-ACC1 [2]) was 1.32 µM and the “area under concentration-response curve” value (NCI-H295R [3]) was 392. For the same compound, the “area under concentration-response curve” value (CU-ACC2) was 473 and the “area under concentration-response curve” value (CU-ACC1 [4]) was 387.
C=C1C(=O)O[C@H]2C[C@H](C)C(/C=C/C(C)=O)=CC[C@H]12 was tested, and the AC50 viability (NCI-H295R [1]) was 18.6 µM, the AC50 viability (CU-ACC1 [2]) was 9.34 µM and the “area under concentration-response curve” value (NCI-H295R [3]) was 519. For the same compound, the “area under concentration-response curve” value (CU-ACC2) was 529 and the “area under concentration-response curve” value (CU-ACC1 [4]) was 450.
In the case of O=C([O-])C[C@H](O)C[C@H](O)/C=C/c1c(C2CC2)nc2ccccc2c1-c1ccc(F)cc1, the AC50 viability (NCI-H295R [1]) is reported as 10.5 µM, the AC50 viability (CU-ACC1 [2]) is reported as 4.68 µM and the “area under concentration-response curve” value (NCI-H295R [3]) is reported as 464. The “area under concentration-response curve” value (CU-ACC2) was 478 and the “area under concentration-response curve” value (CU-ACC1 [4]) was 394.
CC(C)(C)c1[nH]cnc1/C=c1\[nH]c(=O)/c(=C/c2ccccc2)[nH]c1=O was tested, and the AC50 viability (NCI-H295R [1]) was 0.0372 µM, the AC50 viability (CU-ACC1 [2]) was 18.6 µM and the “area under concentration-response curve” value (NCI-H295R [3]) was 434. The “area under concentration-response curve” value (CU-ACC2) was 398 and the “area under concentration-response curve” value (CU-ACC1 [4]) was 490.
C[C@@H](C(=O)Nc1ccc(Cl)cc1)[C@H]1CC[C@@H](c2ccnc3ccc(F)cc32)CC1 was tested, and the AC50 viability (NCI-H295R [1]) was 16.6 µM, the AC50 viability (CU-ACC1 [2]) was 29.5 µM and the “area under concentration-response curve” value (NCI-H295R [3]) was 564. The “area under concentration-response curve” value (CU-ACC2) was 626 and the “area under concentration-response curve” value (CU-ACC1 [4]) was 488.
For CC1=C(C)C2=C(S1)[N]3C(=NN=C3[C@H](CC(=O)OC(C)(C)C)/N=C2/C4=CC=C(Cl)C=C4)C, the AC50 viability (NCI-H295R [1]) was 16.6 µM, the AC50 viability (CU-ACC1 [2]) was 18.6 µM and the “area under concentration-response curve” value (NCI-H295R [3]) was 520. The “area under concentration-response curve” value (CU-ACC2) was 553 and the “area under concentration-response curve” value (CU-ACC1 [4]) was 432.
With C[C@@H]1O[C@@H](O[C@@H]2C=C3CC[C@@H]4[C@H](CC[C@]5(C)[C@@H](c6ccc(=O)oc6)CC[C@]45O)[C@@]3(C)CC2)[C@H](O)[C@H](O)[C@H]1O the AC50 viability (NCI-H295R [1]) was 0.0332 µM, the AC50 viability (CU-ACC1 [2]) was 0.0148 µM and the “area under concentration-response curve” value (NCI-H295R [3]) was 277. The “area under concentration-response curve” value (CU-ACC2) was 307 and the “area under concentration-response curve” value (CU-ACC1 [4]) was 219.
With C=C(C)[C@H]1Cc2c(ccc3c2O[C@@H]2COc4cc(OC)c(OC)cc4[C@@H]2C3=O)O1 the AC50 viability (NCI-H295R [1]) was 1.05 µM, the AC50 viability (CU-ACC1 [2]) was 0.166 µM and the “area under concentration-response curve” value (NCI-H295R [3]) was 445. For the same compound, the “area under concentration-response curve” value (CU-ACC2) was 479 and the “area under concentration-response curve” value (CU-ACC1 [4]) was 344.
In the case of COc1cc(C(=O)NC(=N)Nc2ccc(C)c(NC(=O)c3ccc(-c4ccccc4)cc3)c2)cc(OC)c1OC, the AC50 viability (NCI-H295R [1]) is reported as 13.2 µM, the AC50 viability (CU-ACC1 [2]) is reported as 10.5 µM and the “area under concentration-response curve” value (NCI-H295R [3]) is reported as 399. The “area under concentration-response curve” value (CU-ACC2) was 489 and the “area under concentration-response curve” value (CU-ACC1 [4]) was 403.
With C[C@H]1O[C@H](C[C@H](O)[C@@H]1O)O[C@H]2[C@@H](O)C[C@@H](O[C@@H]2C)O[C@H]3[C@@H](O)C[C@@H](O[C@@H]3C)O[C@H]4CC[C@@]5(C)[C@H](CC[C@@H]6[C@@H]5C[C@@H](O)[C@]7(C)[C@H](CC[C@]67O)C/8=C/C(=O)OC8)C4 the AC50 viability (NCI-H295R [1]) was 0.118 µM, the AC50 viability (CU-ACC1 [2]) was 0.0372 µM and the “area under concentration-response curve” value (NCI-H295R [3]) was 269. For the same compound, the “area under concentration-response curve” value (CU-ACC2) was 349 and the “area under concentration-response curve” value (CU-ACC1 [4]) was 255.
NCCCN([C@H](CC#C)C/1=N/C2=C(C=CC(=C2)Cl)C(=O)N1NC3=CC=CC=C3)C(=O)C4=CC=CC(=C4F)Cl was tested, and the AC50 viability (NCI-H295R [1]) was 20.9 µM, the AC50 viability (CU-ACC1 [2]) was 33.2 µM and the “area under concentration-response curve” value (NCI-H295R [3]) was 484. The “area under concentration-response curve” value (CU-ACC1 [4]) was 429.
With Clc1ccc(C(c2ccccc2Cl)C(Cl)Cl)cc1 (stereo not drawn) the AC50 viability (NCI-H295R [1]) was 20.9 µM, the AC50 viability (CU-ACC1 [2]) was 18.6 µM and the “area under concentration-response curve” value (NCI-H295R [3]) was 432. The “area under concentration-response curve” value (CU-ACC1 [4]) was 426.
With O=C(Nc1cccnn1)N1CCC(=Cc2cccc(Oc3ccc(C(F)(F)F)cn3)c2)CC1 the AC50 viability (NCI-H295R [1]) was 20.9 µM, the AC50 viability (CU-ACC1 [2]) was 20.9 µM and the “area under concentration-response curve” value (NCI-H295R [3]) was 445. For the same compound, the “area under concentration-response curve” value (CU-ACC1 [4]) was 361.
With ClC1=CC=C(CCCOC/2=N/NC(=O)C(=C2NCC3=CN=CC=C3)/Br)C=C1 the AC50 viability (NCI-H295R [1]) was 10.5 µM, the AC50 viability (CU-ACC1 [2]) was 3.72 µM and the “area under concentration-response curve” value (NCI-H295R [3]) was 457. For the same compound, the “area under concentration-response curve” value (CU-ACC1 [4]) was 358.
With CCC(=O)O[C@@]1([C@@H](C)C[C@H]2[C@@H]3CCC/4=C/C(=O)/C=C\[C@]4(C)[C@@]3(F)[C@@H](O)C[C@]12C)C(=O)CCl the AC50 viability (NCI-H295R [1]) was 20.9 µM, the AC50 viability (CU-ACC1 [2]) was 20.9 µM and the “area under concentration-response curve” value (NCI-H295R [3]) was 503. For the same compound, the “area under concentration-response curve” value (CU-ACC1 [4]) was 475.
For CN(C)CCCN1c2ccccc2CCc2ccc(Cl)cc21, the AC50 viability (NCI-H295R [1]) was 23.5 µM, the AC50 viability (CU-ACC1 [2]) was 18.6 µM and the “area under concentration-response curve” value (NCI-H295R [3]) was 535. The “area under concentration-response curve” value (CU-ACC1 [4]) was 473.
For Cc1ccc(NC(=O)c2ccc(CN3CCN(C)CC3)cc2)cc1Nc1nccc(-c2cccnc2)n1, the AC50 viability (NCI-H295R [1]) was 20.9 µM, the AC50 viability (CU-ACC1 [2]) was 23.5 µM and the “area under concentration-response curve” value (NCI-H295R [3]) was 469. The “area under concentration-response curve” value (CU-ACC1 [4]) was 484.
In the case of [2H]C([2H])(Nc1nc(-c2ccccc2C([2H])(C([2H])([2H])[2H])C([2H])([2H])[2H])ncc1C)c1ccc(-n2ccnn2)cc1, the AC50 viability (NCI-H295R [1]) is reported as 9.34 µM, the AC50 viability (CU-ACC1 [2]) is reported as 16.6 µM and the “area under concentration-response curve” value (NCI-H295R [3]) is reported as 531. For the same compound, the “area under concentration-response curve” value (CU-ACC1 [4]) was 469.
For CCNc1cc(NC2CCC(O)CC2)nc(Nc2ccc3c(ccn3Cc3ccccc3)c2)n1 (stereo not drawn), the AC50 viability (NCI-H295R [1]) was 1.18 µM, the AC50 viability (CU-ACC1 [2]) was 0.0235 µM and the “area under concentration-response curve” value (NCI-H295R [3]) was 156. The “area under concentration-response curve” value (CU-ACC1 [4]) was 149.
With CC(=O)C\1=C(/C)C2=CN=C(NC3=CC=C(C=N3)N4CCNCC4)N=C2N(C5CCCC5)C1=O the AC50 viability (NCI-H295R [1]) was 26.3 µM, the AC50 viability (CU-ACC1 [2]) was 16.6 µM and the “area under concentration-response curve” value (NCI-H295R [3]) was 487. The “area under concentration-response curve” value (CU-ACC1 [4]) was 461.
For COC1=CC2=C(C=C1OC)[C@H]3[C@@H](CO2)OC4=C(C=CC5=C4\C=C/C(C)(C)O5)C3=O, the AC50 viability (NCI-H295R [1]) was 16.6 µM, the AC50 viability (CU-ACC1 [2]) was 0.372 µM and the “area under concentration-response curve” value (NCI-H295R [3]) was 510. The “area under concentration-response curve” value (CU-ACC1 [4]) was 342.
CCN1C(=O)N\2CC3=CC(=CC(=C3[C@@H](C)\C=C2C14CCN(CC4)CC5=CC(=CC(=C5)C)C)OC)OC was tested, and the AC50 viability (NCI-H295R [1]) was 18.6 µM, the AC50 viability (CU-ACC1 [2]) was 37.2 µM and the “area under concentration-response curve” value (NCI-H295R [3]) was 514. For the same compound, the “area under concentration-response curve” value (CU-ACC1 [4]) was 426.
